Measurements reported in patent US9278922B2 (ABBVIE INC., priority 2009, dated 2016).

The compounds below were run on HCV 1b-Con-1 replicon (assay: HCV 1b-Con-1 replicon assay (luciferase reporter gene, HuH-7 cells)). Conditions: Hepatitis C virus, Huh-7, luciferase reporter gene activity in the replicon, in the presence of 5% FBS.
Assay type: cell-based, Hepatitis C virus (HCV) genotype 1b-Con1

Row | Compound | EC50 [nM]
1 | COC(=O)N[C@H](C(=O)N1CCCC[C@H]1C(=O)Nc1ccc(CN(Cc2ccc(NC(=O)[C@@H]3CCCCN3C(=O)[C@@H](NC(=O)OC)C(C)(C)C)cc2)c2ccc(F)cc2)cc1)C(C)(C)C [Example 101, methyl [(1S)-1-{[(2S)-2-{[4-({(4-fluorophenyl)[4-({[(2S)-1-{(2S)-2-[(methoxycarbonyl)amino]-3,3-dimethylbutanoyl}piperidin-2-yl]carbonyl}amino)benzyl]amino}methyl)phenyl]carbamoyl}piperidin-1-yl]carbonyl}-2,2-dimethylpropyl]carbamate] | < 1
2 | O=C(Nc1ccc(CN(Cc2ccc(NC(=O)[C@@H]3C[C@@H](F)CN3C(=O)[C@@H](c3ccccc3)N3CCCCC3)cc2)c2ccc(F)cc2)cc1)[C@@H]1C[C@@H](F)CN1C(=O)[C@@H](c1ccccc1)N1CCCCC1 [Example 102, (2S,4R,2′S,4′R)-N,N′-{[(4-fluorophenyl)imino]bis(methanediylbenzene-4,1-diyl)}bis{4-fluoro-1-[(2R)-2-phenyl-2-piperidin-1-ylacetyl]pyrrolidine-2-carboxamide}] | < 1
3 | COC(=O)N[C@H](C(=O)N1C[C@H](F)C[C@H]1C(=O)Nc1ccc(CN(Cc2ccc(NC(=O)[C@@H]3C[C@@H](F)CN3C(=O)[C@@H](NC(=O)OC)C(C)(C)C)cc2)c2ccc(F)cc2)cc1)C(C)(C)C [Example 103] | < 1
4 | COC(=O)N[C@H](C(=O)N1CCC[C@H]1C(=O)Nc1ccc(CN(Cc2ccc(NC(=O)[C@@H]3CCCN3C(=O)[C@@H](NC(=O)OC)C3CCCCC3)cc2)c2ccc(F)cc2)cc1)C1CCCCC1 [Example 104, dimethyl ([(4-fluorophenyl)imino]bis{methanediylbenzene-4,1-diylcarbamoyl(25)pyrrolidine-2,1-diyl[(1S)-1-cyclohexyl-2-oxoethane-2,1-diyl]})biscarbamate] | < 1
5 | CCC(O)(CC)C(C(=O)N1CCC[C@H]1C(=O)Nc1ccc(CN(Cc2ccc(NC(=O)[C@@H]3CCCN3C(=O)C(c3ccccc3)C(O)(CC)CC)cc2)c2ccc(F)cc2)cc1)c1ccccc1 (stereo partly drawn) [Example 105, (2S,2′S)-N,N′-{[(4-fluorophenyl)imino]bis(methanediylbenzene-4,1-diyl)}bis[1-(3-ethyl-3-hydroxy-2-phenylpentanoyl)pyrrolidine-2-carboxamide]] | < 1
6 | O=C(Nc1ccc(CN(Cc2ccc(NC(=O)[C@@H]3CCCN3C(=O)C(c3ccccc3)C3(O)CCCC3)cc2)c2ccc(F)cc2)cc1)[C@@H]1CCCN1C(=O)C(c1ccccc1)C1(O)CCCC1 (stereo partly drawn) [Example 106, (2S ,2′S)-N,N′-{[(4-fluorophenyl)imino]bis(methanediylbenzene-4,1-diyl)}bis{1-[(1-hydroxycyclopentyl)(phenyl)acetyl]pyrrolidine-2-carboxamide}] | < 1
7 | O=C(Nc1ccc(CN(Cc2ccc(NC(=O)[C@@H]3CCCN3C(=O)C(c3ccccc3)C3CCCC3)cc2)c2ccc(F)cc2)cc1)[C@@H]1CCCN1C(=O)C(c1ccccc1)C1CCCC1 (stereo partly drawn) [Example 107, (2S,2′S)-N,N′-{[(4-fluorophenyl)imino]bis(methanediylbenzene-4,1-diyl)}bis{1-[cyclopentyl(phenyl)acetyl]pyrrolidine-2-carboxamide}] | 10 to 100
8 | CC(C)C(C(=O)N1CCC[C@H]1C(=O)Nc1ccc(CN(Cc2ccc(NC(=O)[C@@H]3CCCN3C(=O)C(c3ccccc3)C(C)C)cc2)c2ccc(F)cc2)cc1)c1ccccc1 (stereo partly drawn) [Example 108, (2S,2′S)-N,N′-{[(4-fluorophenyl)imino]bis(methanediylbenzene-4,1-diyl)}bis[1-(3-methyl-2-phenylbutanoyl)pyrrolidine-2-carboxamide]] | 1 to 10
9 | COC(=O)N[C@H](C(=O)N1C[C@@H]2C[C@@H]2[C@H]1C(=O)Nc1ccc(CN(Cc2ccc(NC(=O)[C@@H]3[C@H]4C[C@H]4CN3C(=O)[C@@H](NC(=O)OC)C(C)(C)C)cc2)c2ccc(F)cc2)cc1)C(C)(C)C [Example 109, methyl [(1S)-1-{[(1S,2S,5R)-2-{[4-({(4-fluorophenyl)[4-({[(1S,2S,5R)-3-{(2S)-2-[(methoxycarbonyl)amino]-3,3-dimethylbutanoyl}-3-azabicyclo[3.1.0]hex-2-yl]carbonyl}amino)benzyl]amino}methyl)phenyl]carbamoyl}-3-azabicyclo[3.1.0]hex-3-yl]carbonyl}-2,2-dimethylpropyl]carbamate] | 10 to 100
10 | O=C(Nc1ccc(CN(Cc2ccc(NC(=O)[C@@H]3CCCN3C(=O)[C@H](O)c3ccccc3)cc2)c2ccc(F)cc2)cc1)[C@@H]1CCCN1C(=O)[C@H](O)c1ccccc1 [Example 110, (2S ,2′S)-N,N′-{[(4-fluorophenyl)imino]bis(methanediylbenzene-4,1-diyl)}bis{1-[(2R)-2-hydroxy-2-phenylacetyl]pyrrolidine-2-carboxamide}] | < 1
11 | CC(C)(C)[C@H](Nc1ncccn1)C(=O)N1CCC[C@H]1C(=O)Nc1ccc(CN(Cc2ccc(NC(=O)[C@@H]3CCCN3C(=O)[C@@H](Nc3ncccn3)C(C)(C)C)cc2)c2ccccc2)cc1 [Example 111, (2S,2′S)-N,N′-[(phenylimino)bis(methanediylbenzene-4,1-diyl)]bis{1-[(2S)-3,3-dimethyl-2-(pyrimidin-2-ylamino)butanoyl]pyrrolidine-2-carboxamide}] | 1 to 10
12 | CC[C@H](NC(=O)OC)C(=O)N1CCC[C@H]1C(=O)Nc1ccc(CN(Cc2ccc(NC(=O)[C@@H]3CCCN3C(=O)[C@H](CC)NC(=O)OC)cc2)c2ccc(F)cc2)cc1 [Example 112, dimethyl ([(4-fluorophenyl)imino]bis{methanediylbenzene-4,1-diylcarbamoyl(25)pyrrolidine-2,1-diyl[(2S)-1-oxobutane-1,2-diyl]})biscarbamate] | 1 to 10
13 | CC(=O)O[C@H](C(=O)N1CCC[C@H]1C(=O)Nc1ccc(CN(Cc2ccc(NC(=O)[C@@H]3CCCN3C(=O)[C@H](OC(C)=O)c3ccccc3)cc2)c2ccc(F)cc2)cc1)c1ccccc1 [Example 113, [(4-fluorophenyl)imino]bis[methanediylbenzene-4,1-diylcarbamoyl(2S)pyrrolidine-2,1-diyl(1R)-2-oxo-1-phenylethane-2,1-diyl]diacetate] | < 1
14 | COC(=O)N[C@H](C(=O)N1CCC[C@H]1C(=O)Nc1ccc(CN(Cc2ccc(NC(=O)[C@@H]3CCCN3C(=O)[C@@H](c3ccccc3)N3CCCCC3)cc2)c2ccc(F)cc2)cc1)[C@H]1CCOC1 [Example 114, methyl {(1S)-2-{(2S)-2-[(4-{[(4-fluorophenyl){4-[({(2S)-1-[(2R)-2-phenyl-2-piperidin-1-ylacetyl]pyrrolidin-2-yl}carbonyl)amino]benzyl}amino]methyl}phenyl)carbamoyl]pyrrolidin-1-yl}-2-oxo-1-[(3R)-tetrahydrofuran-3-yl]ethyl}carbamate] | < 1
15 | CC[C@H](NC(=O)OC)C(=O)N1CCC[C@H]1C(=O)Nc1ccc(CN(Cc2ccc(NC(=O)[C@@H]3CCCN3C(=O)[C@@H](c3ccccc3)N3CCCCC3)cc2)c2ccc(F)cc2)cc1 [Example 115, methyl [(1S)-1-({(2S)-2-[(4-{[(4-fluorophenyl){4-[({(2S)-1-[(2R)-2-phenyl-2-piperidin-1-ylacetyl]pyrrolidin-2-yl}carbonyl)amino]benzyl}amino]methyl}phenyl)carbamoyl]pyrrolidin-1-yl}carbonyl)propyl]carbamate] | < 1
16 | O=C(Nc1ccc(CN(Cc2ccc(NC(=O)[C@@H]3CCCN3C(=O)C(c3ccccc3)N3CC[C@@H](F)C3)cc2)c2ccc(F)cc2)cc1)[C@@H]1CCCN1C(=O)C(c1ccccc1)N1CC[C@@H](F)C1 (stereo partly drawn) [Example 116, (2S,2′S)-N,N′-{[(4-fluorophenyl)imino]bis(methanediylbenzene-4,1-diyl)}bis(1-{[(3R)-3-fluoropyrrolidin-1-yl](phenyl)acetyl}pyrrolidine-2-carboxamide)] | < 1
17 | O=C(Nc1ccc(CN(Cc2ccc(NC(=O)[C@@H]3CCCN3C(=O)C(c3ccccc3)N3CC[C@H](F)C3)cc2)c2ccc(F)cc2)cc1)[C@@H]1CCCN1C(=O)C(c1ccccc1)N1CC[C@H](F)C1 (stereo partly drawn) [Example 119, (2S,2′S)-N,N′-{[(4-fluorophenyl)imino]bis(methanediylbenzene-4,1-diyl)}bis(1-{[(3S)-3-fluoropyrrolidin-1-yl](phenyl)acetyl}pyrrolidine-2-carboxamide)] | < 1
18 | CC(C)(C)[C@H](Nc1nccs1)C(=O)N1CCC[C@H]1C(=O)Nc1ccc(CN(Cc2ccc(NC(=O)[C@@H]3CCCN3C(=O)[C@@H](Nc3nccs3)C(C)(C)C)cc2)c2ccccc2)cc1 [Example 121, (2S,2′S)-N,N′-[(phenylimino)bis(methanediylbenzene-4,1-diyl)]bis{1-[(2S)-3,3-dimethyl-2-(1,3-thiazol-2-ylamino)butanoyl]pyrrolidine-2-carboxamide}] | < 1
19 | CCN(C(C)=O)[C@@H](C(=O)N1CCC[C@H]1C(=O)Nc1ccc(CN(Cc2ccc(NC(=O)[C@@H]3CCCN3C(=O)[C@@H](c3ccccc3)N(CC)C(C)=O)cc2)c2ccc(F)cc2)cc1)c1ccccc1 [Example 122, (2S,2′S)-N,N′-{[(4-fluorophenyl)imino]bis(methanediylbenzene-4,1-diyl)}bis(1-{(2R)-2-[acetyl(ethyl)amino]-2-phenylacetyl}pyrrolidine-2-carboxamide)] | 10 to 100
20 | COC(=O)N[C@H](C(=O)N1[C@H](C(=O)Nc2ccc(CN(Cc3ccc(NC(=O)[C@@H]4C[C@@H]5CCC[C@@H]5N4C(=O)[C@@H](NC(=O)OC)C(C)(C)C)cc3)c3ccc(F)cc3)cc2)C[C@@H]2CCC[C@@H]21)C(C)(C)C [Example 123, dimethyl ([(4-fluorophenyl)imino]bis{methanediylbenzene-4,1-diylcarbamoyl(2S,3aS,6aS)hexahydrocyclopenta[b]pyrrole-2,1(2H)-diyl[(2S)-3,3-dimethyl-1-oxobutane-1,2-diyl]})biscarbamate] | < 1
21 | O=C(Nc1ccc(CN(Cc2ccc(NC(=O)[C@@H]3C[C@@H]4CCC[C@@H]4N3C(=O)[C@@H](c3ccccc3)N3CCCCC3)cc2)c2ccc(F)cc2)cc1)[C@@H]1C[C@@H]2CCC[C@@H]2N1C(=O)[C@@H](c1ccccc1)N1CCCCC1 [Example 124, (2S,3aS,6aS,2′S,3a′S,6a′S)-N,N′-{[(4-fluorophenyl)imino]bis(methanediylbenzene-4,1-diyl)}bis{1-[(2R)-2-phenyl-2-piperidin-1-ylacetyl]octahydrocyclopenta[b]pyrrole-2-carboxamide}] | < 1
